Test results taken from ChEMBL document CHEMBL1131212, “Synthesis and adrenergic activity of a new series of N-aryl dicyclopropyl ketone oxime ethers: SAR and stereochemical aspects” (J Med Chem, 1998).

target: T1, Adrenergic receptor alpha-1 (Rattus norvegicus, UniProt P15823+P23944+P43140); assay: Inhibition of alpha-1 adrenergic receptor isolated from rat ventricle homogenates; conditions: not given
T1 sequence (P15823 whole entry): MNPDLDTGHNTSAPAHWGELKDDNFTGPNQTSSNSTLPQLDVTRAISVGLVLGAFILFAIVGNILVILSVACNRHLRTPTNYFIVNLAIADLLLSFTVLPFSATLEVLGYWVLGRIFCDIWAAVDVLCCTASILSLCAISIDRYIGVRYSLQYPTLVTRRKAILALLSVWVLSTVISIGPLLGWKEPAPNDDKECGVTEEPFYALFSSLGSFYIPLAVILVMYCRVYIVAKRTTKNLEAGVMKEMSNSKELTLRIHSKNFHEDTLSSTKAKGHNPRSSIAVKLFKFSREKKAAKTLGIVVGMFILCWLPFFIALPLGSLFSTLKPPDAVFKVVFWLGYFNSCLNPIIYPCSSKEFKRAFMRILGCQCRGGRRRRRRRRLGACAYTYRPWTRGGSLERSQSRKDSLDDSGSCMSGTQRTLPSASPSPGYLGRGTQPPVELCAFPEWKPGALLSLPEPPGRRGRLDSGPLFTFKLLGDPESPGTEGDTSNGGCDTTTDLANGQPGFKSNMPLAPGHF
T1 sequence (P23944 whole entry): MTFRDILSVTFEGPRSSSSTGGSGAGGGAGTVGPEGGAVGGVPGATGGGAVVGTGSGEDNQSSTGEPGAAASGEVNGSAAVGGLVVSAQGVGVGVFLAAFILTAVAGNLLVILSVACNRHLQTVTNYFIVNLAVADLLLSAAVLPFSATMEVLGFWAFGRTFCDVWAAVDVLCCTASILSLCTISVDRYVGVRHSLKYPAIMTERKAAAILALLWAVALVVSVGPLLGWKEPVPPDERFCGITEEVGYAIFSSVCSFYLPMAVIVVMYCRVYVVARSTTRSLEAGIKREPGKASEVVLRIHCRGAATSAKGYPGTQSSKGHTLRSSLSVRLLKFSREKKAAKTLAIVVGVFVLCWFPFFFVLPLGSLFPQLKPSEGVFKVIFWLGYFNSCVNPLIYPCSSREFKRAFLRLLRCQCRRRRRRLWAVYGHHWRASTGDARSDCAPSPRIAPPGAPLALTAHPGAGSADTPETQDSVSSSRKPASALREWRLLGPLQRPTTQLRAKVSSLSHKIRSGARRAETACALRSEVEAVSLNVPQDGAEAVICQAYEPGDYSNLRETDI
T1 sequence (P43140 whole entry): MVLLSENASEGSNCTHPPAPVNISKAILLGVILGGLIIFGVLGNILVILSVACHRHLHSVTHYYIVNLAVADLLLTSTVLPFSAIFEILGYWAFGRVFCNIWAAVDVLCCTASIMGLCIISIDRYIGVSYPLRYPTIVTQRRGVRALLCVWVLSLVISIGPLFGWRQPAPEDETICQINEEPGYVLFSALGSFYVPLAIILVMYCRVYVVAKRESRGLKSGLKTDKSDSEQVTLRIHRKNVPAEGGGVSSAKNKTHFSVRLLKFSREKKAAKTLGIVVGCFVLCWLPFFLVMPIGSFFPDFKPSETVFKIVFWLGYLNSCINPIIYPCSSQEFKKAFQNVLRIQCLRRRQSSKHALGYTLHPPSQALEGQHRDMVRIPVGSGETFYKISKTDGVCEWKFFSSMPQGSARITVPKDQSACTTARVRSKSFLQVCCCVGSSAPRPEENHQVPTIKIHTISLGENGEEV

| Structure (SMILES) | IC50 [nM] |
| --- | --- |
| OC(CNc1ccc(-c2ccccc2)cc1)CON=C(C1CC1)C1CC1 (stereo unspecified) | 3100 |
| OC(CNc1ccc(Cl)cc1)CON=C(C1CC1)C1CC1 (stereo unspecified) | 18700 |
| OC(CNc1cccc(I)c1)CON=C(C1CC1)C1CC1 (stereo unspecified) | > 100000 |
| OC(CNc1ccc(I)cc1)CON=C(C1CC1)C1CC1 (stereo unspecified) | 27500 |
| CCCCc1ccc(NCC(O)CON=C(C2CC2)C2CC2)cc1 (stereo unspecified) | 30700 |
| Oc1ccc(NCC(O)CON=C(C2CC2)C2CC2)cc1 (stereo unspecified) | 28300 |
| O=[N+]([O-])c1ccc(NCC(O)CON=C(C2CC2)C2CC2)cc1 (stereo unspecified) | 19000 |
| OC(CNc1ccccc1-c1ccccc1)CON=C(C1CC1)C1CC1 (stereo unspecified) | > 100000 |

target: T2, Adrenergic receptor beta (Rattus norvegicus, UniProt P18090+P10608+P26255); assay: Inhibition of beta adrenergic receptor isolated from rat ventricle homogenates.; conditions: not given

| Structure (SMILES) | IC50 [nM] |
| --- | --- |
| OC(CNc1ccc(-c2ccccc2)cc1)CON=C(C1CC1)C1CC1 (stereo unspecified) | 4.5 |
| OC(CNc1ccc(Cl)cc1)CON=C(C1CC1)C1CC1 (stereo unspecified) | 11.4 |
| OC(CNc1cccc(I)c1)CON=C(C1CC1)C1CC1 (stereo unspecified) | 630 |
| OC(CNc1ccc(I)cc1)CON=C(C1CC1)C1CC1 (stereo unspecified) | 4.1 |
| CCCCc1ccc(NCC(O)CON=C(C2CC2)C2CC2)cc1 (stereo unspecified) | 7 |
| O=[N+]([O-])c1ccc(NCC(O)CON=C(C2CC2)C2CC2)cc1 (stereo unspecified) | 7.9 |
| OC(CNc1ccccc1-c1ccccc1)CON=C(C1CC1)C1CC1 (stereo unspecified) | 998 |

target: T3, Adrenergic receptor beta (Rattus norvegicus) (UniProt P18090+P10608+P26255); assay: In vitro inhibitory specificity for Beta adrenergic receptor was evaluated; ND=not determined; format: protein assay; conditions: not given

| Structure (SMILES) | Specificity |
| --- | --- |
| Oc1ccc(NCC(O)CON=C(C2CC2)C2CC2)cc1 (stereo unspecified) | 2730 |

target: T2, Adrenergic receptor beta; assay: The compound was tested for the concentration to inhibit 50% of Beta adrenergic receptor isolated from rat ventricle homogenates; ND=not determined; conditions: not given

| Structure (SMILES) | IC50 [nM] |
| --- | --- |
| Oc1ccc(NCC(O)CON=C(C2CC2)C2CC2)cc1 (stereo unspecified) | 10.4 |

species: Cavia porcellus; assay: Chronotropic effect studied in right atria isolated from guinea pig and is expressed in pA2.; conditions: read-out: pA2 (converted)

| Structure (SMILES) | Kb [nM] |
| --- | --- |
| OC(CNc1ccc(-c2ccccc2)cc1)CON=C(C1CC1)C1CC1 (stereo unspecified) | 10 |
| OC(CNc1ccc(Cl)cc1)CON=C(C1CC1)C1CC1 (stereo unspecified) | 39.8 |
| OC(CNc1cccc(I)c1)CON=C(C1CC1)C1CC1 (stereo unspecified) | 5010 |
| OC(CNc1ccc(I)cc1)CON=C(C1CC1)C1CC1 (stereo unspecified) | 15.8 |
| CCCCc1ccc(NCC(O)CON=C(C2CC2)C2CC2)cc1 (stereo unspecified) | 79.4 |
| Oc1ccc(NCC(O)CON=C(C2CC2)C2CC2)cc1 (stereo unspecified) | 79.4 |
| O=[N+]([O-])c1ccc(NCC(O)CON=C(C2CC2)C2CC2)cc1 (stereo unspecified) | 100 |
| OC(CNc1ccccc1-c1ccccc1)CON=C(C1CC1)C1CC1 (stereo unspecified) | 100000 |

species: Rattus norvegicus; assay: The compound was tested for percent increase in heart rate with respect to that measured after isoprenaline in 5-10 animals and showing significant increase (p <= 0.05) with respect to baseline values (293 +/- 7 to 310 +/- 5 […]).; format: functional; conditions: not given

| Structure (SMILES) | Increase [%] |
| --- | --- |
| OC(CNc1ccc(-c2ccccc2)cc1)CON=C(C1CC1)C1CC1 (stereo unspecified) | 70 |
| OC(CNc1ccc(Cl)cc1)CON=C(C1CC1)C1CC1 (stereo unspecified) | 47 |
| OC(CNc1cccc(I)c1)CON=C(C1CC1)C1CC1 (stereo unspecified) | 42 |
| OC(CNc1ccc(I)cc1)CON=C(C1CC1)C1CC1 (stereo unspecified) | 64 |

species: Rattus norvegicus; assay: The compound was tested for percent increase in heart rate with respect to that measured after isoprenaline in 5-10 animals.; format: functional; conditions: not given

| Structure (SMILES) | Increase [%] |
| --- | --- |
| CCCCc1ccc(NCC(O)CON=C(C2CC2)C2CC2)cc1 (stereo unspecified) | 10 |
| Oc1ccc(NCC(O)CON=C(C2CC2)C2CC2)cc1 (stereo unspecified) | 10 |
| O=[N+]([O-])c1ccc(NCC(O)CON=C(C2CC2)C2CC2)cc1 (stereo unspecified) | 10 |
| OC(CNc1ccccc1-c1ccccc1)CON=C(C1CC1)C1CC1 (stereo unspecified) | 0 |

test system: Rattus norvegicus; assay: Tested for MED (smallest dose giving maximum effect) evaluated by dose-response curve, from 0.1 to 5 mg/kg in 5-10 animals on iv administration.; format: functional; conditions: dose mg/kg 0.1-5

| Structure (SMILES) | MED [µmol/kg] |
| --- | --- |
| OC(CNc1ccc(-c2ccccc2)cc1)CON=C(C1CC1)C1CC1 (stereo unspecified) | 1 |
| OC(CNc1ccc(Cl)cc1)CON=C(C1CC1)C1CC1 (stereo unspecified) | 2.1 |
| OC(CNc1cccc(I)c1)CON=C(C1CC1)C1CC1 (stereo unspecified) | 7.8 |
| OC(CNc1ccc(I)cc1)CON=C(C1CC1)C1CC1 (stereo unspecified) | 1.6 |
| CCCCc1ccc(NCC(O)CON=C(C2CC2)C2CC2)cc1 (stereo unspecified) | 2.7 |
| Oc1ccc(NCC(O)CON=C(C2CC2)C2CC2)cc1 (stereo unspecified) | 3.1 |
| O=[N+]([O-])c1ccc(NCC(O)CON=C(C2CC2)C2CC2)cc1 (stereo unspecified) | 1.8 |
| OC(CNc1ccccc1-c1ccccc1)CON=C(C1CC1)C1CC1 (stereo unspecified) | > 12.9 |

species: Cavia porcellus; assay: Ionotropic effect in electrically driven left atrial preparation (Atria isolated from guinea pig) and is expressed in pA2.; conditions: Cardiac atrium, read-out: pA2 (converted)

| Structure (SMILES) | Kb [nM] |
| --- | --- |
| OC(CNc1ccc(-c2ccccc2)cc1)CON=C(C1CC1)C1CC1 (stereo unspecified) | 39.8 |
| OC(CNc1ccc(Cl)cc1)CON=C(C1CC1)C1CC1 (stereo unspecified) | 126 |
| OC(CNc1cccc(I)c1)CON=C(C1CC1)C1CC1 (stereo unspecified) | 3160 |
| OC(CNc1ccc(I)cc1)CON=C(C1CC1)C1CC1 (stereo unspecified) | 63.1 |
| CCCCc1ccc(NCC(O)CON=C(C2CC2)C2CC2)cc1 (stereo unspecified) | 251 |
| Oc1ccc(NCC(O)CON=C(C2CC2)C2CC2)cc1 (stereo unspecified) | 200 |
| O=[N+]([O-])c1ccc(NCC(O)CON=C(C2CC2)C2CC2)cc1 (stereo unspecified) | 251 |
| OC(CNc1ccccc1-c1ccccc1)CON=C(C1CC1)C1CC1 (stereo unspecified) | 25100 |

target: T3, Adrenergic receptor beta (Rattus norvegicus); conditions: not given

| Structure (SMILES) | Specificity |
| --- | --- |
| OC(CNc1ccc(-c2ccccc2)cc1)CON=C(C1CC1)C1CC1 (stereo unspecified) | 690 |
| OC(CNc1ccc(Cl)cc1)CON=C(C1CC1)C1CC1 (stereo unspecified) | 1640 |
| OC(CNc1cccc(I)c1)CON=C(C1CC1)C1CC1 (stereo unspecified) | > 160 |
| OC(CNc1ccc(I)cc1)CON=C(C1CC1)C1CC1 (stereo unspecified) | 6700 |
| CCCCc1ccc(NCC(O)CON=C(C2CC2)C2CC2)cc1 (stereo unspecified) | 4390 |
| O=[N+]([O-])c1ccc(NCC(O)CON=C(C2CC2)C2CC2)cc1 (stereo unspecified) | 2400 |
| OC(CNc1ccccc1-c1ccccc1)CON=C(C1CC1)C1CC1 (stereo unspecified) | > 100 |
